For experiment [1], the target named is T1, Carboxy-terminal domain RNA polymerase II polypeptide A small phosphatase 1 (Homo sapiens, UniProt Q9GZU7).
T1 sequence (Q9GZU7 whole entry): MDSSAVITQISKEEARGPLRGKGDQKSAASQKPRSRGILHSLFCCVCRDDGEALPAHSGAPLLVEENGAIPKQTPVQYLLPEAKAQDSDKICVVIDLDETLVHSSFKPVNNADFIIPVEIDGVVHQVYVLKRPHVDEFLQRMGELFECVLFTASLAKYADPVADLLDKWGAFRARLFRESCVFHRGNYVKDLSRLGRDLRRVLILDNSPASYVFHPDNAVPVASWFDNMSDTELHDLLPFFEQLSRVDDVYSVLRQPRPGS
Nature of the experiment: inhibitors of CTDSP1, concentration-response testing, biochemical assay, absorbance-based, actives from ultra-high-throughput screening (AID 540297). It is filed as functional.

Experiment [2] has as its target T2, Low molecular weight phosphotyrosine protein phosphatase (Homo sapiens, UniProt P24666).
T2 sequence (P24666 whole entry): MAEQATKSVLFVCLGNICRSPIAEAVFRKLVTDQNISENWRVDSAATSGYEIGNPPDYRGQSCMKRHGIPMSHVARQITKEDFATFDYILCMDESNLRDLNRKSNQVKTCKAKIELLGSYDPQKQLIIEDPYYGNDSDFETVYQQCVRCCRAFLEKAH
Type of experiment: functional. To be noted: read-out: IC50_Mean.

Experiment [3] deals with T2, Low molecular weight phosphotyrosine protein phosphatase. It is filed as functional. The note with it: read-out: IC50_Mean. This is another data set of the same source.
For the next experiment, the target named is Beta-galactosidase (Escherichia coli, UniProt Q8VNN2). Nature of the experiment: Dose response counterscreen for EBI2 assay utilizing the enzyme, b-galactosidase. Type of experiment: functional. In general terms: The purpose of a counterscreen is to sort out artefacts and off-target activity.
The target in experiment [4] is T3, Methionyl-tRNA synthetase, putative (Trypanosoma brucei brucei, UniProt Q38C91).
T3 sequence (Q38C91 whole entry): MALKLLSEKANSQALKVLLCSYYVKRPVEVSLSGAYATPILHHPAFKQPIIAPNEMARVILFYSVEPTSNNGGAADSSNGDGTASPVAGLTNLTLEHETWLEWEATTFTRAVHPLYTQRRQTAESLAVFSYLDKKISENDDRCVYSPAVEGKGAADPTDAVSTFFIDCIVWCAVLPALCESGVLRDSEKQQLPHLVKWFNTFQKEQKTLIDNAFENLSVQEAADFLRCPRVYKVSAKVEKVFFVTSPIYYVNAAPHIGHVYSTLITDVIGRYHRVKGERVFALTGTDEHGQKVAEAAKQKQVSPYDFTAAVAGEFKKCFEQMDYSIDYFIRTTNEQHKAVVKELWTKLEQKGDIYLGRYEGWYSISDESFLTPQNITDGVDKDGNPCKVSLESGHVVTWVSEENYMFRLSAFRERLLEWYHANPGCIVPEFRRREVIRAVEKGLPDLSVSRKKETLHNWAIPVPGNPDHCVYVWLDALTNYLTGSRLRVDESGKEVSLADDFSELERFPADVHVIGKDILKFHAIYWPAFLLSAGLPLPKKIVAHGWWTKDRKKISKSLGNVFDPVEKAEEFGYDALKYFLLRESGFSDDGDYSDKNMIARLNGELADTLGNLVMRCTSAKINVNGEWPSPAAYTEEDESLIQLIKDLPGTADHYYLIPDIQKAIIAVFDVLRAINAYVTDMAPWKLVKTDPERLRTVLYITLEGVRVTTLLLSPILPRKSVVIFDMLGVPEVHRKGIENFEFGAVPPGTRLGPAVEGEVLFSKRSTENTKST
Type of experiment: functional, Trypanosoma brucei brucei strain 927/4 GUTat10.1.

Experiment [5] in a line: Counterscreen for inhibitors of Trypanosoma brucei methionyl tRNA synthetase (MetRS): Luminescence-based cell-based high throughput dose response assay to identify compounds that are cytotoxic to Jurkat human T lymphocyte cells. Type of experiment: functional.
Experiment [6] has as its target T3, Methionyl-tRNA synthetase, putative. Type of experiment: functional, Trypanosoma brucei brucei strain 927/4 GUTat10.1. The source holds these as a separate data set.
The target in experiment [7] is T4, Sentrin-specific protease 1 (Homo sapiens, UniProt Q9P0U3).
T4 sequence (Q9P0U3 whole entry): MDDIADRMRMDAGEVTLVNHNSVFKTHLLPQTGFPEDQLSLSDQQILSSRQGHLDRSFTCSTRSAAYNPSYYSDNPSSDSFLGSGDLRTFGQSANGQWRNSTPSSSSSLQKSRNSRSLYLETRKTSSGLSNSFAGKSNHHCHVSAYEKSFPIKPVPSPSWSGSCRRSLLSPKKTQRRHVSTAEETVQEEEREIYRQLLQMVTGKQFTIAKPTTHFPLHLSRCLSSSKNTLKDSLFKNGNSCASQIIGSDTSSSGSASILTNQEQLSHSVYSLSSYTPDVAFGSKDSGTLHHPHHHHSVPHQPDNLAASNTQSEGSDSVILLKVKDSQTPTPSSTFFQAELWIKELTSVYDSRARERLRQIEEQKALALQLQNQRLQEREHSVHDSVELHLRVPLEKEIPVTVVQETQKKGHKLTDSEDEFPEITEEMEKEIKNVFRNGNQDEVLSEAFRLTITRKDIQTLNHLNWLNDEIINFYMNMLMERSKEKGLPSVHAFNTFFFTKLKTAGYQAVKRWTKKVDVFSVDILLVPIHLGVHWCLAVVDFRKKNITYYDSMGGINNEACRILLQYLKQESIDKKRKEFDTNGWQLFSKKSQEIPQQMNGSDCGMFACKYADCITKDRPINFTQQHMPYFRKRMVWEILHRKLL
Put plainly: potency of human SENP1 inhibitors, dose response, biochemical, kinetic FRET (AID 651697). To be noted: read-out: IC50_Mean. Type of experiment: functional.

For experiment [8], the target named is T4, Sentrin-specific protease 1. Put plainly: Dose response confirmation of small molecule inhibitors of the catalytic domain of the SUMO protease, SENP1 in a FRET assay. The note with it: read-out: IC50_Mean. Type of experiment: functional.
The target in experiment [9] is T5, RNA-binding protein pos-1 (Caenorhabditis elegans, UniProt G5EF15).
T5 sequence (G5EF15 whole entry): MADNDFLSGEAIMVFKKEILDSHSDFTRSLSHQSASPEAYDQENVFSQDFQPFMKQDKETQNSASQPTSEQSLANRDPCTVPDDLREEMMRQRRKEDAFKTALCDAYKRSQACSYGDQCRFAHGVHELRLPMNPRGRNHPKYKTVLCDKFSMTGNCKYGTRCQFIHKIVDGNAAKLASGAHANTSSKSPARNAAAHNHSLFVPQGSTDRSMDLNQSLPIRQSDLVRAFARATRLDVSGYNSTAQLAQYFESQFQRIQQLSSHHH
Nature of the experiment: inhibitors of POS-1/mex-3 RNA binding, dose response, biochemical, fluorescence polarization (AID 1964).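 Also: purified POS-1 fused to maltose binding protein made in E. coli; potency of compounds blocking POS-1 binding to fluorescent RNA.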

Experiment [10] concerns the target T6, Zinc finger protein mex-5 (Caenorhabditis elegans, UniProt Q9XUB2).
T6 sequence (Q9XUB2 whole entry): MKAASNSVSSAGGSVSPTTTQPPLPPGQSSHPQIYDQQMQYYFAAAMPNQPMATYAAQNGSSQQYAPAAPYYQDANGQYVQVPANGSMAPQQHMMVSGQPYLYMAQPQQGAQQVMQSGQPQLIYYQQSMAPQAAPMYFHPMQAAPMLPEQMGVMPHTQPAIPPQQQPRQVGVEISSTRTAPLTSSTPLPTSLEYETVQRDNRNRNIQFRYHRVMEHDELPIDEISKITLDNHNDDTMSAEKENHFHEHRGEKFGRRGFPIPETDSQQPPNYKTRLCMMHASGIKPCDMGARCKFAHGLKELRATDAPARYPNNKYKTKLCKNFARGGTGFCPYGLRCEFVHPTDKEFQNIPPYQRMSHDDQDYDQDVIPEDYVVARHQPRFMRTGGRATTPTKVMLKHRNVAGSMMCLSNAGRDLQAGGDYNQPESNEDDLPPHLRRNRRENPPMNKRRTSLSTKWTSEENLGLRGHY
Nature of the experiment: MEX-5/TCR-2 RNA interaction inhibitors, dose response, biochemical, C. elegans, fluorescence polarization (AID 1960). On the technique in general: In fluorescence polarisation assays a small probe gives low polarisation when free and higher when bound to something large.

Experiment [11] is described as follows: inhibitors of intracellular T. cruzi replication, confirmation, NIH3T3 host cells, beta-gal luminescence (AID 2044).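 Also: intracellular parasites grown in NIH/3T3 mouse fibroblasts as host cells; luminescent beta-galactosidase reporter signal from transgenic T. cruzi replicating inside host cells; inhibitors lower the luminescence signal.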 Type of experiment: functional, cell-based.
Experiment [12] can be described thus: cytotoxicity toward NIH3T3 fibroblasts, dose response, counter-screen, cell-based, ATP luminescence, mouse fibroblasts (AID 2010).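 Also: cells exposed to compound for about 90 hours before reading.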 Type of experiment: functional.
In experiment [13] the target is Nuclear receptor subfamily 5 group A member 2 (Homo sapiens, UniProt O00482). Type of experiment: functional, cell-based.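 Also: HEK293T cells transfected with LRH-1 and a StAR promoter luciferase reporter; potency for inhibitors that lower LRH-1 driven reporter light.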
For experiment [14], the target named is T7, Long-chain-fatty-acid--AMP ligase FadD28 (Mycobacterium tuberculosis, UniProt P9WQ59).
T7 sequence (P9WQ59 whole entry): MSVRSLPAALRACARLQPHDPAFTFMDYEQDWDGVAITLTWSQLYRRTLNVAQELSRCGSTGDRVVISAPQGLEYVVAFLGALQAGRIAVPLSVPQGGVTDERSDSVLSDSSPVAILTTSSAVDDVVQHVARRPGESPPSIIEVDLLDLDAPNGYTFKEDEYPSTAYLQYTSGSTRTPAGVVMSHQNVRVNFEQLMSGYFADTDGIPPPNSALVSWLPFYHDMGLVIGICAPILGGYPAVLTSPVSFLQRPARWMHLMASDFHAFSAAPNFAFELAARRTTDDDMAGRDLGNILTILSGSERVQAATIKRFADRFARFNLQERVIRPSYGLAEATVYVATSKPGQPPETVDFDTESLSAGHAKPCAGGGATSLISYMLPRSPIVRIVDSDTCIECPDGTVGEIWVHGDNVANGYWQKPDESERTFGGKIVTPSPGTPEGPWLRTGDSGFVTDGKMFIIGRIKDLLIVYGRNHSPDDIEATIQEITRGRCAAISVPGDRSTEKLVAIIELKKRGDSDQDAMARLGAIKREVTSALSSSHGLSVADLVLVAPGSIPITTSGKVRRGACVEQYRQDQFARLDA
Put plainly: Fluorescence polarization aasay to screen for inhibitors that compete for the binding of FadD28 to a bisubstrate Measured in Biochemical System Using Plate Reader - 2147-01_Inhibitor_Dose_CherryPick_Activity. Type of experiment: functional, Mycobacterium tuberculosis H37Rv.

In another experiment the target is Steroidogenic factor 1 (Homo sapiens, UniProt Q13285). Nature of the experiment: Counterscreen for inverse agonists of the liver receptor homolog-1 (LRH-1; NR5A2): Luminescence-based cell-based high throughput dose response assay to identify inverse agonists of the Steroidogenic Factor 1 Nuclear Receptor (SF1; NR5A1). Type of experiment: functional.
A short description of experiment [15]: StAR promoter reporter inhibition counter-screen, dose response, counter-screen for LRH-1 inverse agonist project, cell-based, luminescence, luciferase reporter (AID 651969). Type of experiment: functional.
Experiment [16] can be described thus: miR-122 activators in hepatoma reporter cells, dose response, cell-based, Huh7 psiCHECK-miR122, Renilla luciferase, cherry-picked (AID 651956).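 Also: huh7 hepatoma cells stably carrying a psiCHECK-2 miR-122 sensor plasmid; renilla luciferase signal reporting endogenous miR-122 activity after 48 h compound exposure.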 It is filed as functional.
For another experiment, the target named is Paired box protein Pax-8 (Homo sapiens, UniProt Q06710). Nature of the experiment: inhibitors of PAX8-driven TPO luciferase reporter, dose response, RMG-I cells, cherry-pick (AID 687027).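 Also: luciferase reporter driven by Pax8 target thyroperoxidase promoter measured by SteadyGlo luminescence.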 It is filed as functional, cell-based.
A short description of experiment [17]: NIH:OVCAR-3 ovarian cancer cell cytotoxicity, dose response, PAX8 inhibitor project, plate reader, dry powder samples (AID 743044). It is filed as functional, cell-based.
The nature of experiment [18]: cytotoxicity in OVCAR8 ovarian cancer cells, dose response, PAX8 project, cell-based, plate reader, dry powder samples (AID 743197). Type of experiment: functional. The note with it: OVCAR-8.

SMILES strings stand for the structures. Calls of active or inactive are those of the source. Some results are limits rather than exact numbers.

The term EC50 denotes the concentration that produces a half-maximal response. The term AC50 denotes the concentration at which the activity in the assay is half-maximal.

Chain of Beta-galactosidase (Q8VNN2 whole entry): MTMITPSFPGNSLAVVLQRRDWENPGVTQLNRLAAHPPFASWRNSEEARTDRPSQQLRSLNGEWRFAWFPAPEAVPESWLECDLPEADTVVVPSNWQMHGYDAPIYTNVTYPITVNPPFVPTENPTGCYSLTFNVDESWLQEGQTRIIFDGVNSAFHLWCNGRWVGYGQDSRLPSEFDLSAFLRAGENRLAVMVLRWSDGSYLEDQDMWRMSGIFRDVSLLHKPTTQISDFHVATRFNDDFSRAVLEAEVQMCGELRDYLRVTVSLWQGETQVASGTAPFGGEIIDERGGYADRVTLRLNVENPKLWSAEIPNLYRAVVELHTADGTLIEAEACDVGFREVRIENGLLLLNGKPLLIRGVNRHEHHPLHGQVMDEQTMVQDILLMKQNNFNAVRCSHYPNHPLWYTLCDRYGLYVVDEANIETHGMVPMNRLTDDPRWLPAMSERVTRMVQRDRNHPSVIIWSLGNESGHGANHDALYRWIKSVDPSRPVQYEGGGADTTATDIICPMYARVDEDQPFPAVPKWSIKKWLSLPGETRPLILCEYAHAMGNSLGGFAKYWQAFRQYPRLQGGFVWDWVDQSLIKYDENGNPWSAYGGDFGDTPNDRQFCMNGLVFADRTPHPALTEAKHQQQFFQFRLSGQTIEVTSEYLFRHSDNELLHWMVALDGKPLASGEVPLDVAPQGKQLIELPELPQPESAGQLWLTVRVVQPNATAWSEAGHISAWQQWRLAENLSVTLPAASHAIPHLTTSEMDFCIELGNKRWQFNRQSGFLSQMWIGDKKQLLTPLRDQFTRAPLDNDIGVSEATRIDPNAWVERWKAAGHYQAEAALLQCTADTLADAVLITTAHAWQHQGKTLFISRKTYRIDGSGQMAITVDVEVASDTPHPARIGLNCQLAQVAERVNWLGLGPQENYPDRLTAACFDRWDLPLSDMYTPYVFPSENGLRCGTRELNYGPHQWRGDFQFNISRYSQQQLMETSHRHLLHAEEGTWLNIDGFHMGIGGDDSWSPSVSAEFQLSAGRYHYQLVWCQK
Chain of Paired box protein Pax-8 (Q06710 whole entry): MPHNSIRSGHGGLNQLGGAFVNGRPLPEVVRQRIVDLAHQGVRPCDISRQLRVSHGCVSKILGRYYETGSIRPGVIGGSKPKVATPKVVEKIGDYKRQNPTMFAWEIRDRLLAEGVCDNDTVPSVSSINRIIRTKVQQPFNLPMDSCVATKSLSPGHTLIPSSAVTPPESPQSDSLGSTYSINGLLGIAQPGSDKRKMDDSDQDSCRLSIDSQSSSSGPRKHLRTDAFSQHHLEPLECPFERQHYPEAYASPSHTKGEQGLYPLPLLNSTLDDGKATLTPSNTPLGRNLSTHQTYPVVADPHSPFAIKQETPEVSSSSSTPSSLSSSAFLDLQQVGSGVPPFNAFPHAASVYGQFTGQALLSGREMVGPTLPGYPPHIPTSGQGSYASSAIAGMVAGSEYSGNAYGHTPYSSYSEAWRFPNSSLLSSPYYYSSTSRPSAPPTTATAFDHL
Chain of Steroidogenic factor 1 (Q13285 whole entry): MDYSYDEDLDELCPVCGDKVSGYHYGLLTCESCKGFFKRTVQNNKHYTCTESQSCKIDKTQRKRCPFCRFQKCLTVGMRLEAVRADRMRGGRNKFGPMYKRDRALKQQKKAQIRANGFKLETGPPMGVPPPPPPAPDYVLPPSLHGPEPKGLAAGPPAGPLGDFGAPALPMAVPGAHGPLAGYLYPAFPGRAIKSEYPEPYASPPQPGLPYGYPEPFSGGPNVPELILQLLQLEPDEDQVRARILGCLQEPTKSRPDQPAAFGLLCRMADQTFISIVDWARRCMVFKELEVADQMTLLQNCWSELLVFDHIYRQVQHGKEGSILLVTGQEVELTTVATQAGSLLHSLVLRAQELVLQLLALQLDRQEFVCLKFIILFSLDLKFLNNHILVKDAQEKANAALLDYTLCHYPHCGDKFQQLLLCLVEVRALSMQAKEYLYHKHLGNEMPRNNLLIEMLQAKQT
Chain of Nuclear receptor subfamily 5 group A member 2 (O00482 whole entry): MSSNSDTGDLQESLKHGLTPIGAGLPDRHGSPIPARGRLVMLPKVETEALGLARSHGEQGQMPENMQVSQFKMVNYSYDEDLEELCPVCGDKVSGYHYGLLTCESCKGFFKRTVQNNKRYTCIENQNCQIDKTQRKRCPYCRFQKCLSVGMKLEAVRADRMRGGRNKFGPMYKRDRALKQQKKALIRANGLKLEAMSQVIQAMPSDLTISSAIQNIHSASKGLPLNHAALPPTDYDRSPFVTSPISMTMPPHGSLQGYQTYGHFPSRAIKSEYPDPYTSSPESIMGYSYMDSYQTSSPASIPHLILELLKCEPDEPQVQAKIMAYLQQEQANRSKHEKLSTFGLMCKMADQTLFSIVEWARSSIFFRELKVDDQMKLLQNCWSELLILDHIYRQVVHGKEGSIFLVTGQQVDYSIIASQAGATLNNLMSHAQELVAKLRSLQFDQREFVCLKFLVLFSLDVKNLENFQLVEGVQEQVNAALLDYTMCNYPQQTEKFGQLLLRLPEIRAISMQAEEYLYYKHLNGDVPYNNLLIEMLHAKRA

For the molecule `O=C(CSc1nc(-c2ccccc2)nc2ccc(F)cc12)Nc1cccc(C(=O)O)c1`, the IC50 in [1] is 6.6 µM (active); in experiment [2], 42.2 µM (inactive); in [3], 21.4 µM (inactive).
As for `COc1cc(OC)cc(C(=O)N2CCN(C(=O)COc3ccc4ccccc4c3)CC2)c1`, the IC50 at Beta-galactosidase was > 80 µM (inactive).
On the same count and under the same terms, the value for `CCC(C)N1CCN(C(=O)COc2ccc3ccccc3c2)CC1` (stereo not given) was > 80 µM (inactive).
As for `O=C(CSc1n[nH]c2c3cc(F)ccc3nc-2n1)NCc1ccc(F)cc1`, the IC50 in experiment [4] is 119 µM (inactive); in experiment [5], 83.3 µM (inactive); in [6] it was 1.42 µM (active).
The like results for `Cc1ccc(C)c(OCCC(=O)Nc2cccc(S(=O)(=O)NC3=NCCCCC3)c2)c1` were, in that order, 98.3 µM (inactive), 83.3 µM (inactive) and 46.4 µM (inactive).
As for `Cc1ccc(/C=C/C(=O)N2CCC(Cc3ccccc3)CC2)cc1`, the IC50 on Beta-galactosidase was > 80 µM (inactive).
Regarding `CN(C)C(=O)CSc1ccc(S(=O)(=O)N2CCCC2)cn1`, the IC50 is 12.9 µM (active) in experiment [7] and 20.7 µM (inactive) in experiment [8].
Consider `Cc1ccc2cc(/C=C(\C#N)C(N)=O)c(N3CCCCC3)nc2c1`, for which the concentration giving a half-maximal response (EC50) in experiment [9] is 50.6 µM (active); in experiment [10], 30.7 µM (inconclusive). For the same molecule, the IC50 is 18.4 µM (active) in experiment [7] and 36.2 µM (inactive) in [8].
In the case of `COC(=O)c1ccc(COc2ccc(/C=N/NC(N)=S)cc2)o1`, the EC50 was 1.39 µM (active) in [11] and > 60 µM (not active) in experiment [12]. For the same molecule, the results for the IC50 (in experiment [13]; on Steroidogenic factor 1; in experiment [15]) were 9.77 µM (active), 1.97 µM (active) and 35.9 µM (inactive), respectively. The AC50 in experiment [14] was 3.63 µM (active).
In the case of `C[C@@H]1CN([C@@H](C)CO)S(=O)(=O)c2ccc(C#CC3(O)CCCC3)cc2O[C@@H]1CN(C)C(=O)c1cccnc1`, in experiment [16], the AC50 was 7.95 µM (active).
`Cc1cc(C)n2c(Nc3c(C)cccc3C)c(-c3cccnc3)nc2n1`: the IC50 in experiment [7] is 28.3 µM (inactive); in [8] it was 16.8 µM (active).
Turning to `C[C@@H]1CCCCO[C@@H](CN(C)C(=O)Nc2ccc(C(F)(F)F)cc2)[C@H](C)CN([C@H](C)CO)C(=O)c2cc(NS(=O)(=O)c3ccc(F)cc3)ccc2O1`, the half-maximal activity concentration (AC50) on Paired box protein Pax-8 was 5.62 µM (active); in [17] it was 23.5 µM (active); in experiment [18], > 70 µM (inactive).

(Values after ChEMBL document CHEMBL1201862, “PubChem BioAssay data set” (2004).)
